In patent publication US10058622B2, “PH-sensitive peptides and their nanoparticles for drug delivery” (THE TRUSTEES OF THE UNIVERSITY OF PENNSYLVANIA, priority 2013, dated 2018):
Read-outs that look alike come from different tables or passages of the source.

Key:
[1] = cited from earlier work
[2] = Solubility of hydrophobic drugs in water versus concentration in nanoparticles; type: physicochemical; conditions: nanoparticles of Example 9 / Example 10
[3] = test system: HCC1806 tumor (triple-negative breast cancer); assay: Tumor growth in HCC1806 tumor inoculated mice; type: in vivo; conditions: 100 mg LND/kg in tris-glycine buffer, intraperitoneal injection
[4] = Solubility of peptides at pH 7.4 and 6.5 (Example 13); type: physicochemical
From the text: Five pH sensitive peptides of the following sequences, […] (SEQ ID NO: 17), […] (SEQ ID NO: 18), […] (SEQ ID NO: 19), […] (SEQ ID NO: 20) and […] (SEQ ID NO: 8) were similarly synthesized by the method described in Example (1). Peptides […] (SEQ ID NO: 17) and […] (SEQ ID NO: 18) were soluble at both pH 7.4 and 6.5. Peptides […] (SEQ ID NO: 19) and […] (SEQ ID NO: 20) were insoluble at both pH 7.4 and 6.5, with […] (SEQ ID NO: 20) forming nanoparticles of about 80 nm. Peptide […] (SEQ ID NO: 8) was insoluble above about pH 6.7 forming nanoparticles of about 50 nm and soluble below about pH6.7; i.e., it undergoes a pH-induced transition at about pH6.7. Therefore, the pH ranges of the hydrophobic/hydrophilic transition and the corresponding soluble/insoluble transition of peptides and their nanoparticles may be adjusted by changing one or more features of the peptide, e.g., sequence and length, and the hydrophobic block and the functional block to which the peptide is conjugated.

[5] = Solubility of peptide nanoparticles as a function of pH (Example 1, FIG. 1B); type: physicochemical; conditions: phosphate buffer solution
From the text: A pH sensitive peptide (Ac-[…]-NH2) (SEQ ID NO: 9) was synthesized by the solid phase method. Amino acids blocked by the fluorinylmethyloxycarbonyl (FMOC) group were utilized to couple to a Rink amide resin. Piperideine, N-methylmorpholine (NMM), and hexafluorophosphate (HBTU) in dimethylformamide were used to remove the FMOC group and activate amino acids. The peptide was acetylated with acetic anhydride at the N-terminus and cleaved with trifluoroacetic acid/triisopropylsilane/water (95%/2.5%/2.5%). […] Such peptide spontaneously forms nanoparticles at pH 7.4. The solubility of nanoparticles was measured as a function of pH. […] Therefore, there is a sharp transition spanning over a pH interval of only 0.1. The increasing solubility at lower pH is believed to be due to the increasing protonation of the histidine group.

[6] = Cytotoxicity by lactic dehydrogenase (LDH) assay; type: cell-based, human; conditions: human, SKOV3 cells, read-out: cell viability
Description: (§1) FIGS. 4A and 4B show lack of cytotoxicity of a pH sensitive peptide solution for SKOV3 cells.
(§2) Cytotoxicity, i.e., the effect of peptide on tumor cell viability, was determined using lactic dehydrogenase (LDH) assay. Cells (SKOV3 cells, a human carcinogenic cell line from ovarian cancer) were plated in 96-well plates (10,000 per well for SKOV3) and allowed to adhere overnight at 37° C. in a humidified atmosphere of 5% CO2. […] The medium was next removed, the LDH assay lysis solution was added, and the wells were kept at 37° C. for another 45 minutes. Finally, the LDH assay mixture was added and the wells were held at room temperature for still another 20-30 minutes before the absorbance was spectrophotometrically measured at a wavelength of 490 nm on a SpectraMax (Molecular Devices). […] This was confirmed by the spectrophotometric intensity of dead cells, shown in the lower panel, which was near zero, meaning it is indistinguishable from that of the control. Therefore, the peptide itself is non-toxic and biocompatible.

[7] = test system: SKOV3 cells; assay: Cytotoxicity by lactic dehydrogenase (LDH) assay; type: cell-based, human; conditions: control set as zero
Description: as §1, §2

In the case of O=C(O)c1nn(Cc2ccc(Cl)cc2Cl)c2ccccc12 [LND, lonidamine], the solubility in water [1] is listed as “about 17 μg/ml”, the “concentration of drug in pH-sensitive peptide nanoparticle preparation” value [2] is listed as 1 mg/ml and the “duration of tumor growth delay effect compared to control” value [3] is listed as “about 10 days”.
For CC(=O)O[C@H]1C(=O)[C@@]2(C)[C@H]([C@H](OC(=O)c3ccccc3)[C@]3(O)C[C@H](OC(=O)[C@H](O)[C@@H](NC(=O)c4ccccc4)c4ccccc4)C(C)=C1C3(C)C)[C@]1(OC(C)=O)CO[C@@H]1C[C@@H]2O [paclitaxel], the solubility in water [1] is listed as “about 0.3 μg/ml” and the “concentration of drug in pH-sensitive peptide nanoparticle preparation” value [2] is listed as 1 mg/ml.
For Ac-GFFFHGFFFH-NH2, the solubility of peptide ([4]; pH 6.5) was “insoluble” and the solubility of peptide ([4]; pH 7.4) was “insoluble”.
For Ac-HFFHGHFFHGHFFHGKK-NH2, the “solubility of peptide and nanoparticle” value ([5]; above pH 7.2) was “completely insoluble”, the “solubility of peptide and nanoparticle” value ([5]; at pH 7.0) was “mostly insoluble” and the “solubility of peptide and nanoparticle” value ([5]; below pH 6.7) was “completely soluble”. The “solubility of peptide and nanoparticle” value ([5]; below pH 6.9) was “mostly soluble”, the “pH interval spanned by the sharp solubility transition” value [5] was 0.1 and the “pH of sudden fall indicating dissolution of peptide construct from nanoparticle” value ([5]; FIG. 1B) was 6.9. For the same compound, the viability at 3 h ([6]; pH 6.8, 3 hours with peptide then 24 hours) was ~100%, the viability at 3 h ([6]; pH 7.4, 3 hours with peptide then 24 hours) was ~100% and the “spectrophotometric intensity of dead cells (LDH release)” value [7] was “near zero”.
For Ac-GHFFHGFFFH-NH2, the solubility of peptide ([4]; pH 6.5) was “insoluble” and the solubility of peptide ([4]; pH 7.4) was “insoluble”.
In the case of Ac-GHFFHGHFFH-NH2, the solubility of peptide ([4]; pH 6.5) is reported as “soluble” and the solubility of peptide ([4]; pH 7.4) is reported as “soluble”.
For Ac-KGGHFFHGHFFHGK-NH2, the solubility of peptide ([4]; pH 6.5) was “soluble” and the solubility of peptide ([4]; pH 7.4) was “soluble”.
